# PubChem BioAssay AID1963983 (Molecular Pharmacology Branch, DTP, NCI, 2024)
# System: 186277-243-T-J2-PDC multi-cell spheroid viability
# Assay: Anticancer human tumor 186277-243-T-J2-PDC patient-derived colon adenocarcinoma cell line growth inhibition [PI3K]
# Conditions: for IC50: curve of first compound; for viability, T/C: stronger effect = lower value
# Outline: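 Three cell types, namely tumor cells, endothelial cells and mesenchymal stem cells, formed each spheroid. Combinations with four PI3K inhibitors were screened at clinically achievable concentrations decreasing by half-log, and spheroid viability was recorded.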
# [1] = second compound 0.0316 µM, first compound 0.0316 µM
# [2] = second compound 0.0316 µM, first compound 0.1 µM
# [3] = second compound 0.0316 µM, first compound 0.316 µM
# [4] = second compound 0.0316 µM, first compound 1 µM
# [5] = second compound 0.0316 µM, first compound 3.16 µM
# [6] = second compound 0.0316 µM, first compound 10 µM
# [7] = second compound 0.1 µM, first compound 0.0316 µM
# [8] = second compound 0.1 µM, first compound 0.1 µM
# [9] = second compound 0.1 µM, first compound 0.316 µM
# [10] = second compound 0.1 µM, first compound 1 µM
# [11] = second compound 0.1 µM, first compound 3.16 µM
# [12] = second compound 0.1 µM, first compound 10 µM
# [13] = second compound 0.316 µM, first compound 0.0316 µM
# [14] = second compound 0.316 µM, first compound 0.1 µM
# [15] = second compound 0.316 µM, first compound 0.316 µM
# [16] = second compound 0.316 µM, first compound 1 µM
# [17] = second compound 0.316 µM, first compound 3.16 µM
# [18] = second compound 0.316 µM, first compound 10 µM
# [19] = second compound 1 µM, first compound 0.0316 µM
# [20] = second compound 1 µM, first compound 0.1 µM
# [21] = second compound 1 µM, first compound 0.316 µM
# [22] = second compound 1 µM, first compound 1 µM
# [23] = second compound 1 µM, first compound 3.16 µM
# [24] = second compound 1 µM, first compound 10 µM
# [25] = second compound 3.16 µM, first compound 0.0316 µM
# [26] = second compound 3.16 µM, first compound 0.1 µM
# [27] = second compound 3.16 µM, first compound 0.316 µM
# [28] = second compound 3.16 µM, first compound 1 µM
# [29] = second compound 3.16 µM, first compound 3.16 µM
# [30] = second compound 3.16 µM, first compound 10 µM
# [31] = second compound 10 µM, first compound 0.0316 µM
# [32] = second compound 10 µM, first compound 0.1 µM
# [33] = second compound 10 µM, first compound 0.316 µM
# [34] = second compound 10 µM, first compound 1 µM
# [35] = second compound 10 µM, first compound 3.16 µM
# [36] = second compound 10 µM, first compound 10 µM
# 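Also: spheroids exposed to compounds for seven days before viability reading.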
# 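For viability, T/C in this document: 100% = DMSO vehicle control viability.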
compound,measurement,setting,value
CC1(C)CCC(CN2CCN(c3ccc(C(=O)NS(=O)(=O)c4ccc(NCC5CCOCC5)c([N+](=O)[O-])c4)c(Oc4cnc5[nH]ccc5c4)c3)CC2)=C(c2ccc(Cl)cc2)C1 + CC(Nc1ncnc2nc[nH]c12)c1cc2cccc(Cl)c2c(=O)n1-c1ccccc1,IC50,second compound 0.0316 µM,4.86 µM
same,IC50,second compound 0.1 µM,4.45 µM
same,IC50,second compound 0.316 µM,5.63 µM
same,IC50,second compound 1 µM,4.84 µM
same,IC50,second compound 3.16 µM,5.17 µM
same,IC50,second compound 10 µM,4.67 µM
same,"viability, T/C",[1],96.6%
same,"viability, T/C",[2],96.2%
same,"viability, T/C",[3],95%
same,"viability, T/C",[4],105%
same,"viability, T/C",[5],77.3%
same,"viability, T/C",[6],4.52%
same,"viability, T/C",[7],99.5%
same,"viability, T/C",[8],116%
same,"viability, T/C",[9],96.7%
same,"viability, T/C",[10],92.2%
same,"viability, T/C",[11],70.5%
same,"viability, T/C",[12],4.02%
same,"viability, T/C",[13],97%
same,"viability, T/C",[14],108%
same,"viability, T/C",[15],91.8%
same,"viability, T/C",[16],98.6%
same,"viability, T/C",[17],92.1%
same,"viability, T/C",[18],8%
same,"viability, T/C",[19],105%
same,"viability, T/C",[20],116%
same,"viability, T/C",[21],102%
same,"viability, T/C",[22],112%
same,"viability, T/C",[23],77%
same,"viability, T/C",[24],4.04%
same,"viability, T/C",[25],112%
same,"viability, T/C",[26],115%
same,"viability, T/C",[27],106%
same,"viability, T/C",[28],103%
same,"viability, T/C",[29],85.9%
same,"viability, T/C",[30],3.14%
same,"viability, T/C",[31],97%
same,"viability, T/C",[32],96.1%
same,"viability, T/C",[33],97.2%
same,"viability, T/C",[34],95.5%
same,"viability, T/C",[35],74.7%
same,"viability, T/C",[36],2.09%
Cn1ncc(Cl)c1-c1cc(C(=O)NC(CN)Cc2cccc(F)c2)sc1Cl (centres undefined) + Cc1nc(NC(=O)N2CCCC2C(N)=O)sc1-c1ccnc(C(C)(C)C(F)(F)F)c1,IC50,second compound 0.0316 µM,0.96 µM
same,IC50,second compound 0.1 µM,0.253 µM
same,IC50,second compound 0.316 µM,0.225 µM
same,IC50,second compound 1 µM,0.157 µM
same,IC50,second compound 3.16 µM,< 0.0316 µM
same,IC50,second compound 10 µM,< 0.0316 µM
same,"viability, T/C",[1],96.2%
same,"viability, T/C",[2],87.8%
same,"viability, T/C",[3],56.8%
same,"viability, T/C",[4],47.8%
same,"viability, T/C",[5],43%
same,"viability, T/C",[6],17.3%
same,"viability, T/C",[7],112%
same,"viability, T/C",[8],68%
same,"viability, T/C",[9],43.4%
same,"viability, T/C",[10],32.4%
same,"viability, T/C",[11],33.2%
same,"viability, T/C",[12],11.6%
same,"viability, T/C",[13],114%
same,"viability, T/C",[14],66.2%
same,"viability, T/C",[15],43%
same,"viability, T/C",[16],26.3%
same,"viability, T/C",[17],25.3%
same,"viability, T/C",[18],9.1%
same,"viability, T/C",[19],95%
same,"viability, T/C",[20],65.7%
same,"viability, T/C",[21],25%
same,"viability, T/C",[22],14.7%
same,"viability, T/C",[23],17.2%
same,"viability, T/C",[24],3.49%
same,"viability, T/C",[25],48.7%
same,"viability, T/C",[26],33.7%
same,"viability, T/C",[27],19.6%
same,"viability, T/C",[28],13.7%
same,"viability, T/C",[29],8.89%
same,"viability, T/C",[30],1.65%
same,"viability, T/C",[31],15.7%
same,"viability, T/C",[32],8.3%
same,"viability, T/C",[33],6.89%
same,"viability, T/C",[34],6.6%
same,"viability, T/C",[35],3.36%
same,"viability, T/C",[36],3.79%
